Assays:
[1] = tested on: mice irradiated with simulated solar UV radiation (SSUV); experiment: Erythema/oedema as mid-dorsal skinfold thickness after simulated solar UV radiation; assay type: in vivo
Procedure: (§1) 1.1 Solar simulated radiation (SSUV) was produced from a filtered fluorescent tube source, and was administered at the rate of 1 MED daily for 3Days.
1.2 Erythema was measured as a mid-dorsal skinfold thickness, which comprises mostly the oedema component of erythema.
(§2) Carnosine incorporated into cosmetic creams at 0.1% and 1.00%, was compared with a cream containing 0.1% acetylcarnosine and a control cream containing neither carnosine nor acylcarnosine. The creams were applied daily (100 μl per mouse) immediately following irradiation with 1 MED of simulated solar UV radiation on 3 consecutive days only.
The sunburn (erythema) response was measured in mice by the oedema component at the peak of the erythema (48 h after the first UV exposure).

[2] = tested on: mice irradiated with simulated solar UV radiation (SSUV); experiment: Contact hypersensitivity to oxazolone after SSUV irradiation (ear swelling); assay type: in vivo; conditions: 0.1% cream; in words
Procedure: as §1
1.3 Contact hypersensitivity was induced by application of 100 μl 0.2% w/v oxazolone in ethanol, to the abdominal skin of groups of 6 mice. The mice were challenged by application of 5 μl of fresh oxazolone/ethanol to each surface of both pinnae one week later, and the ear swelling response was measured 24 h later.
as §2

[3] = tested on: collagen in human fibroblasts; experiment: Collagen cross-linking by UV (solar) irradiation in human fibroblasts in vitro; assay type: cell-based; conditions: 1-2 μM
Description: (§3) 1.4 Collagen cross-linking by UV (solar) irradiation was achieved as described in WO 90/06102.

[4] = tested on: collagen in mouse fibroblasts; experiment: Collagen cross-linking by UV (solar) irradiation in mouse fibroblasts in vitro; assay type: cell-based; conditions: 1-2 μM
Description: as §3

[5] = tested on: collagen in mouse skin; experiment: Collagen cross-linking by UV (solar) irradiation in mouse skin; conditions: 1-2 μM
Description: as §3

With CC(=O)NCCC(=O)N[C@@H](Cc1cnc[nH]1)C(=O)O [acetylcarnosine, N-acetylcarnosine] the “% increase in skinfold thickness” value ([1]; 0.1% cream, 100 μl per mouse daily immediately after 1 MED SSUV on 3 days, measured at 48 h, base + SSUV 30.2) was 11.3%, the “sunburn (erythema) response, oedema component at peak of erythema” value ([1]; creams applied after SSUV, 48 h after the first UV exposure, in words) was “significant reduction” and the “protection against suppression of contact hypersensitivity resulting from UV irradiation” value [2] was “totally prevented”. The “inhibition of cross linking of collagen by UV (solar) irradiation” value (shortened to “inhibition of cross linking of collagen”) [3] was “completely inhibited”, the “inhibition of cross linking of collagen” value [4] was “completely inhibited” and the “inhibition of cross linking of collagen” value [5] was “completely inhibited”.

— patent US20030118525A1, “Treatment of uv induced immunosuppression” (priority 2000, published 2003)
